These results are taken from patent US10676747B2, “Methods for improving cognitive function via modulation of quinone reductase 2” (Carmel-Haifa University Economic Corp. Ltd., priority 2014, dated 2020).

Data set [1] relates to QR2 mRNA. Kind of data set: QR2 mRNA expression in primary cortical cells treated with QR2 shRNA lentiviral clones. It counts as cell-based. To be noted: rat primary cortical cells, week long incubation, compared to scrambled virus; FIG. 8.
Method: (§1) mRNA quantification—We used the RNeasy lipid tissue kit (QIAGEN) according to the manufacturer's instructions in order to extract the RNA. We then evaluated RNA concentration and purity using a nanodrop spectrophotometer.
(§2) The cDNA synthesis was accomplished using the High Capacity Reverse Transcription Kit (ABI) according to the manufacturer's instructions. The reaction was carried out in a total volume of 20 μl on 1000 ng of RNA.
(§3) The qPCR reaction was performed in a total volume of 10 μl on 10 ng of cDNA. We used the following TaqMan assays (Applied Biosystems): QR2 (Rn01434728_g1), NQO1 (RN00566528_m1), glyceraldehyde-3-phosphate dehydrogenase, GAPDH (Rn01775763_g1). The reactions were carried out per the manufacturer's instructions.
(§4) Real Time-PCR analysis was performed using the PCR System STEP-ONE plus (Applied Biosystems). Relative mRNA levels were calculated using the ΔΔCt method using GAPDH as a normalizing gene: ΔΔCt=[(Ct(gene of interest)−Ct(GAPDH)) of the untreated group]−[(Ct(gene of interest)−Ct(GAPDH)) of the treated group]. The fold increase is then calculated as such: fold increase=2−ΔΔCt. […]
For this purpose, we evaluated three different clones (Sigma-Aldrich, Israel). […] We then evaluated QR2 mRNA expression.
Data set [2] relates to rats. Put plainly: Novel taste (saccharin) choice test after injection of QR2 shRNA virus into the IC. In kind it is in vivo, rat. To be noted: lentivirus injected into IC; choice test three days after saccharin; mean+/-SEM, n=12. On the procedure: Micro-infusion—Rats were anesthetized with Equithesin (0.45 ml/100 g) (2.12% w/v MgSO4, 10% v/v ethanol, 39.1% v/v 1,2,-propranolol, 0.98% w/v sodium pentobarbital, and 4.2% w/v chloral hydrate), restrained in a stereotactic apparatus (Stoelting, USA) and injected bilaterally with a 10 mm 28 gauge injection cannula aimed at the rat gustatory cortex (anteroposterior, +1.2 mm relative to bregma; lateral, ±5.5 mm; ventral, −5.5 mm; (Paxinos and Watson, 1986). The injection cannula was connected via PE20 tubing to a Hamilton microsyringe driven by a micro-infusion pump (CMA/100; Carnegie Medicin). […] The injection cannula was left in position before withdrawal for an additional 1 min to minimize dragging of the injected liquid along the injection tract. To avoid lateral bias, animals were injected interchangeably between both sides. Following the microsurgery, animals were injected i.m. with antibiotic and were allowed to recuperate for one week. […]
Preference index—the preference index was calculated by the following equation [(total novel taste liquid ingested/(novel taste liquid ingested+water ingested))*100]. […]

Data set [3] deals with rats. Kind of data set: Memory extinction following a CTA paradigm in QR2 shRNA injected animals. In kind it is in vivo, rat. Conditions: repeated measure ANOVA; FIG. 11. How it is done: Aversion index—the aversion index is calculated by the following equation [(total water ingested/(novel taste liquid ingested+water ingested))*100].
Conditioned Taste Aversion (CTA)—Two groups of rats were deprived from water for a period of 24 hours. This was followed by 3 days of restriction were the rats received two pipettes each filled with 10 ml of water for 20 minutes each day. On the fourth day both groups received two pipettes each filled with 10 ml of an unfamiliar tasting liquid, either saccharine (0.1% w/v) or NaCl (0.3% w/v), for 20 minutes. Forty minutes following the exposure to the novel liquid the rats in the experimental group received an injection of LiCl (prepared in double distilled water (DDW)) (2% bodyweight, intraperitoneally (i.p.)) and those in the control received an injection of physiological saline (2% bodyweight, i.p.).

Data set [4] concerns QR2 mRNA. Put plainly: QR2 mRNA expression in the IC after stereotactic injection of QR2 shRNA virus (RT-PCR). It counts as in vivo, rat. To be noted: compared to scrambled virus group, n=12, p<0.005; FIG. 12.
Method: Tissue extraction—Following the learning protocol the insular cortex was removed by hand. The insular cortex was identified through cortical landmarks, the rhinal fissure and the medial cerebral artery. The insular cortex was immediately placed in liquid nitrogen and then stored at −80° C.
as §1, §2, §3, §4
In data set [5] the test system is mice. Put plainly: Delay fear conditioning test after QR2 shRNA lentivirus injection into the CA1 region of hippocampus. It counts as in vivo, mouse. On the procedure: M&M—A delay fear conditioning test was performed on two groups of mice (10 mice per group) injected with Lentivirus encoding the QR2 shRNA or a scrambled sequence one week before the experiment. The Lentivirus was injected in to the CA1 region of hippocampus. The conditioning apparatus used was four New Biotechnology Ltd. (NBT) chambers, (Panlab Harvard Apparatus, Barcelona, Spain) consisting of a Plexiglas walls (25×25×25 cm) with a 16 stainless steel rods grid floor, a dim light and speakers. The apparatus was located inside a sound proof larger, insulated plastic cabinet that excluded outside light and noise. On day 1 (training), the mice were transported to the nearby testing room and set next to the conditioning chambers for a 5 min resting period with lights off. Each chamber was wiped with 30% ethanol solution before training and each mouse was placed in the chamber individually during training. For delay fear conditioning, mice were pre-exposed to an experimental chamber for 5 min, and received 5 trials in which 4000 Hz, tone, applied for 10 seconds at 76 dB (conditioned stimuli; CS) co-terminated by a 0.36 mA foot shock applied for 2 second (unconditioned stimuli; US), separated by 3.5 min inter-trial interval (ITI). After the last training trial, the mice were left in the conditioning chamber for another 120 s and were then placed back in their home cages.
On day 2 and day 8 (1 week later) (context fear test), the mice were returned to the same experimental chamber with the same contextual configuration for 10 min. Freezing behavior was recorded. On the third day and day 9 (1 week later) (tone fear test), the mice were set next to the conditioning chambers for a 5 min resting period with lights on, then mice were placed into the same experimental chamber, with novel contextual configuration (no light, and a smooth black Plexiglas floor), for 5 min during which freezing was record under infra-red light source. […] The animals' behavior was recorded, and the data analyzed by Freeze Frame 3.0 software (Coulbourn Instruments, PA, USA). […]

The test system of data set [6] is mice. Put plainly: Morris Water Maze after QR2 shRNA injection into hippocampus (CA1 region). It counts as in vivo, mouse. On the procedure:
M&M—Spatial reference memory in the Morris Water Maze (MWM) was determined as previously described (Vorhees, Williams 2006). The pool was 1.2 m in diameter and the water was rendered opaque by the addition of white tempera. Water temperature was kept at 22° C. The platform was 8 cm in diameter. All behavioral tests and trials were performed at the same time of day (±1 hr) during the animal's light phase. The mice were acclimatized in testing room for 15 min. Mice were trained in four trials per day (trial length 60 s with 30 s ITI), over 4 consecutive days. If an animal fails to locate the platform within training time, it is usually picked up and placed on the platform for 15 s. For probe trials, the platform was removed from the maze and the animals were allowed to search for 60 s. Learning was evaluated by monitoring escape latencies to a hidden (submerged) platform and time spent in each quadrant of the maze (quadrant occupancy) with an automated video tracking system, and the data analyzed by EthoVision XT9 (Noldus Information Technology, USA). Swimming speed was similar in QR2 shRNA and scrambled injected animals (data not shown).

Turning to “v394: shRNA construct directed against mouse QR2 (Sigma-Aldrich clone), subcloned into lentiviral plasmid pFUGW; chosen clone used for the injected virus (CCGGCAGUCACUGUGUCUGAUUUAUCUCGAGAUAAAUCAGACACAGUGACUGUUUUUG)”, in data set [1], the “QR2 mRNA expression” value is “slightly more effective”. For the same substance, the “Preference index (PI)” value in data set [2] is listed as 76.3+/−2.14. The “Memory extinction (aversion index over time)” value in data set [3] is listed as “significant extinction on Day 3”. For the same substance, in data set [4], the “QR2 mRNA expression in the IC” value is on record as “significantly lower QR2 mRNA expression”. The “Long term memory (response to conditioned context and tone)” value in data set [5] (1 week later, vs scrambled sequence, context p=0.03, tone p=0.031) was “enhanced long term memory”. For the same substance, in data set [5] (day 2, vs scrambled sequence, n=10, p=0.031), the “Freezing response, context test” value was “froze significantly frequently”. The “Freezing response, tone test” value in data set [5] (day 3, vs scrambled sequence, n=10, p=0.003) was “froze significantly frequently”. In data set [6] (after completion of training, vs scrambled injected mice, p=0.031), the “Quadrant occupancy (time in target quadrant), probe test” value was “preferential quadrant occupancy”. In addition, the “Escape latency to hidden platform” value in data set [6] (day 4 of training, vs scrambled injected mice, p=0.036) is “shorter latency”. Also, in data set [6] (vs scrambled injected animals, data not shown), the Swimming speed entry was “similar”. For the same substance, in data set [6] (vs scrambled injected mice, p=0.029), the “Crossings of the platform location, probe test” value was “more times”.
